The molecules below were run against Cytochrome P450 3A4 (Homo sapiens, UniProt P08684).
Cytochrome P450 3A4, sequence (P08684 whole entry): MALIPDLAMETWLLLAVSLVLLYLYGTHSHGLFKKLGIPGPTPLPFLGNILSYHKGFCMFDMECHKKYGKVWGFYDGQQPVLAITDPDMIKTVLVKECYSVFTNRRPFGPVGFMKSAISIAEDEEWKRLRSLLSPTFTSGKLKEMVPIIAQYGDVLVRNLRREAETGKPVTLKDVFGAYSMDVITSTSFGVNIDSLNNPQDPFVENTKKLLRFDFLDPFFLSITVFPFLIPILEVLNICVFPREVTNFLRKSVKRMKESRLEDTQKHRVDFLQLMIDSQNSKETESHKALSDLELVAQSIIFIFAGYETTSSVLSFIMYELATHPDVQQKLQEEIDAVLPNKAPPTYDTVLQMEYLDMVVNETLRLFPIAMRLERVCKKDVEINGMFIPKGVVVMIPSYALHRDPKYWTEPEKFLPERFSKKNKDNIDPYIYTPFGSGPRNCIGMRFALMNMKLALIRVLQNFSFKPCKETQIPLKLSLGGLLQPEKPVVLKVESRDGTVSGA

Going from `CC(C)(C(=O)c1cccnc1)c1cccnc1` [METYRAPONE] to `CC(C)(C)C(=O)C(Oc1ccc(Cl)cc1)n1cncn1` (stereo not drawn) [TRIADIMEFON], the IC50 rises from 4.93 µM to 9.29 µM (1.9-fold). The first is the more potent here.

For `CCCC1COC(Cn2cncn2)(c2ccc(Cl)cc2Cl)O1` (stereo not drawn) [PROPICONAZOLE], the IC50 was 1.04 µM.
